Reference: ChEMBL document CHEMBL1926670, “1,2-Benzothiazine 1,1-dioxide carboxylate derivatives as novel potent inhibitors of aldose reductase” (Bioorg Med Chem, 2011)

What was measured:
[1] = target: Aldo-keto reductase family 1 member A1 (Rattus norvegicus, UniProt P51635); assay: Inhibition of Wistar rat kidney ALR1 using D-glucuronate as substrate after 10 mins by UV/VIS double spectrophotometric analysis
[2] = target: Aldo-keto reductase family 1 member B1 (Rattus norvegicus, UniProt P07943); assay: Inhibition of Wistar rat lens ALR2 using D,L-glyceraldehyde as substrate after 10 mins by UV/VIS double spectrophotometric analysis; assay type: tissue-based, Lens of camera-type eye
[3] = target: Aldo-keto reductase family 1 member B1 (Rattus norvegicus) (UniProt P07943); assay: Inhibition of Wistar rat lens ALR2 using D,L-glyceraldehyde as substrate at 10 uM after 10 mins by UV/VIS double spectrophotometric analysis; assay type: tissue-based; conditions: Lens of camera-type eye

Chain of Aldo-keto reductase family 1 member A1 (P51635 whole entry, looked up): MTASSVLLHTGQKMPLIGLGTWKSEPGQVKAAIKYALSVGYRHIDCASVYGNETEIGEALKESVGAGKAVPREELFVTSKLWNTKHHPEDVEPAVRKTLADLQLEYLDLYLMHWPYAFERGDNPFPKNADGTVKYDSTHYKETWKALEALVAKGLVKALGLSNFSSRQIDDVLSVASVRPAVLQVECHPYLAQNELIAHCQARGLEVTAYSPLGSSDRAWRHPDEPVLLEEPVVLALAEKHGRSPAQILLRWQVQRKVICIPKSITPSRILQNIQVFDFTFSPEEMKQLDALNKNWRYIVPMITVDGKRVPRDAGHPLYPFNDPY

Row | SMILES | IC50 [1] | IC50 [2] | inhibition [3]
1 | O=C(O)/C=C1\CN(Cc2ccc(C(F)(F)F)cc2)S(=O)(=O)c2ccccc21 (mixture of isomers) | – | 6130 nM | –
2 | O=C(O)/C=C1\CN(Cc2ccc(Br)cc2F)S(=O)(=O)c2ccccc21 (mixture of isomers) | > 10 µM | 110 nM | –
3 | O=C(O)CC1CN(Cc2cc(F)c(F)cc2F)S(=O)(=O)c2ccccc21 (racemic) | > 10 µM | 340 nM | –
4 | O=C(O)CC1CN(Cc2ccccc2F)S(=O)(=O)c2ccccc21 (racemic) | – | 1730 nM | –

The remaining lines, values ahead:

Row | IC50 [1] | IC50 [2] | inhibition [3] | SMILES
5 | > 10 µM | 590 nM | – | O=C(O)/C=C1\CN(Cc2cc(F)c(F)cc2F)S(=O)(=O)c2ccccc21 (mixture of isomers)
6 | > 10 µM | 140 nM | – | O=C(O)/C=C1\CN(Cc2cccc([N+](=O)[O-])c2)S(=O)(=O)c2ccccc21 (mixture of isomers)
7 | – | 2130 nM | – | O=C(O)/C=C1\CN(Cc2ccccc2F)S(=O)(=O)c2ccccc21 (mixture of isomers)
8 | – | – | 32% | O=C(O)/C=C1\CN(Cc2cc(C(F)(F)F)cc(C(F)(F)F)c2)S(=O)(=O)c2ccccc21 (mixture of isomers)
9 | – | 10400 nM | – | O=C(O)CC1CN(Cc2cc(C(F)(F)F)cc(C(F)(F)F)c2)S(=O)(=O)c2ccccc21 (racemic)
10 | – | 5300 nM | – | O=C(O)CC1CN(Cc2ccc(C(F)(F)F)cc2)S(=O)(=O)c2ccccc21 (racemic)
